A short description of data set [1]: Pharmacokinetic (PK) analysis in rats. To be noted: SD rats, single intragastric administration, 5 mg/kg, plasma; for AUC(0-t) / AUC(0-inf) / half-life / MRT / Cmax: Sprague-Dawley, rat, po; for AUC(0-t): read-out: Area Under Curve AUC0-t; for AUC(0-inf): read-out: Area Under Curve AUC0-∞; for half-life: read-out: Half-Time t1/2 (converted); for MRT: read-out: Mean Residence Time MRT; for Cmax: read-out: Plasma Concentration Cmax. It is filed as in vivo, Sprague Dawley (SD) rats.

The next data set has as its target FGFR4 kinase (Homo sapiens (Human), UniProt P22455). Briefly: Enzymologic experiment of FGFR4 (TR-FRET). To be noted: TR-FRET kinase activity. It is filed as biochemical. The protocol:
1. Enzymologic Experiment of FGFR4
In this experiment, the inhibitory effect of the compounds on FGFR4 kinase activity was tested by a fluorescence resonance energy transfer (TR-FRET) method, and the half maximal inhibitory concentration (IC50) of the compounds on the FGFR4 kinase activity was determined.
2) 1˜5 μL of diluted solution in gradient of the compound were added.
4) The mixture was incubated for 0.5-3 hours at room temperature.
5) 10 μL of EDTA and a test solution comprising labeled antibody were added, and the plate was incubated for 1 hour at room temperature.
6) The fluorescence signal values of each plate were determined by a microplate reader at 665 nm.
7) The inhibition rates were calculated according to the fluorescence signal values.

The subject of another data set is HuH-7 cells. The data set is described as follows: Inhibition of HuH-7 cell proliferation (CellTiter-Glo). To be noted: Homo sapiens, 72 hours. It counts as cell-based. In outline: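 HuH-7 cells, pre-incubated 16–24 h (37 °C, 5% CO2), then exposed to serially diluted compound for 72 h. Viability by CellTiter-Glo luminescence; inhibition rates from signal, IC50 by curve fitting.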

The target of another data set is FGFR1 kinase (Homo sapiens (Human), UniProt P11362). The data set is described as follows: Enzymologic experiment of FGFR1 (TR-FRET). Conditions: TR-FRET kinase activity. It is filed as biochemical. In outline:
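Inhibition of FGFR1 (0.1–5 nM) was measured by TR-FRET with 5–50 nM peptide substrate and 10–200 μM ATP over 0.5–3 h at room temperature. The reaction was stopped with EDTA plus labeled antibody for 1 h, read at 665 nm, and IC50 was fitted from inhibition rates.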

In another data set the test system is Hep 3B cells. Briefly: Inhibition of Hep 3B cell proliferation (CellTiter-Glo). It counts as cell-based. To be noted: Homo sapiens, Hep3B, 72 hours. In outline: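 Hep 3B cells seeded at 1-5×10^4 cells/ml and incubated 16-24 h, then exposed to serially diluted compound for 72 h at 37° C, 5% CO2. Viability read by CellTiter-Glo chemiluminescence; IC50 curve-fitted from inhibition rates.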

The subject of another data set is SK-HEP-1 cells. The data set is described as follows: Inhibition of SK-HEP-1 cell proliferation (CellTiter-Glo). It counts as cell-based. To be noted: Homo sapiens, SK-HEP1, 72 hours. In outline:
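SK-HEP-1 cells were seeded, grown 16–24 h, then exposed to serially diluted compound for 72 h at 37 °C, 5% CO2. Viability was read by CellTiter-Glo luminescence, and IC50 was fitted from inhibition rates.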
(In general: In ATP-based viability assays light output follows the ATP content of the culture.)

Each structure is given as a SMILES string. pIC50: −log10 of the molar value.

For orientation: MRT means the average time that molecules of a dose stay in the body. The term pIC50 denotes −log10 of the IC50, conventionally taken in molar units.

Sequence of FGFR4 kinase (P22455 22-802): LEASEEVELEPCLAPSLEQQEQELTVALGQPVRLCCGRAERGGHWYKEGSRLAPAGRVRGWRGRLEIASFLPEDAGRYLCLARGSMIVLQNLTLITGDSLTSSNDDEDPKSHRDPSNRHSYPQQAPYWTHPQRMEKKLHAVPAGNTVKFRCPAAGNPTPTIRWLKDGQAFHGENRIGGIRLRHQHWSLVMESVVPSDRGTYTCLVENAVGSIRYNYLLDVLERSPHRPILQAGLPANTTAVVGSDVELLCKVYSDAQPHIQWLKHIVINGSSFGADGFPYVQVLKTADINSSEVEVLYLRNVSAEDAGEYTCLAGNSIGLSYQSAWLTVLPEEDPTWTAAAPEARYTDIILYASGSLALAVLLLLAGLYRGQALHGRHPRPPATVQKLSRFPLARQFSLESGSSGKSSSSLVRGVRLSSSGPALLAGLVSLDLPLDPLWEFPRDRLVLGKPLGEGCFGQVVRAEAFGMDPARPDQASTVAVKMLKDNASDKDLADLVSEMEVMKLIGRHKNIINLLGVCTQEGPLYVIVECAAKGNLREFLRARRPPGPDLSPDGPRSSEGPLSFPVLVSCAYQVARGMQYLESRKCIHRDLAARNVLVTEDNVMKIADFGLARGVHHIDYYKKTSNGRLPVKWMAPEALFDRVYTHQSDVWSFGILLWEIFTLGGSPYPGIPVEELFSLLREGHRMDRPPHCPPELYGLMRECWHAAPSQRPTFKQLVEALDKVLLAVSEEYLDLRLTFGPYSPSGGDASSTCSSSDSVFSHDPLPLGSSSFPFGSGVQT
Sequence of FGFR1 kinase (P11362 22-822): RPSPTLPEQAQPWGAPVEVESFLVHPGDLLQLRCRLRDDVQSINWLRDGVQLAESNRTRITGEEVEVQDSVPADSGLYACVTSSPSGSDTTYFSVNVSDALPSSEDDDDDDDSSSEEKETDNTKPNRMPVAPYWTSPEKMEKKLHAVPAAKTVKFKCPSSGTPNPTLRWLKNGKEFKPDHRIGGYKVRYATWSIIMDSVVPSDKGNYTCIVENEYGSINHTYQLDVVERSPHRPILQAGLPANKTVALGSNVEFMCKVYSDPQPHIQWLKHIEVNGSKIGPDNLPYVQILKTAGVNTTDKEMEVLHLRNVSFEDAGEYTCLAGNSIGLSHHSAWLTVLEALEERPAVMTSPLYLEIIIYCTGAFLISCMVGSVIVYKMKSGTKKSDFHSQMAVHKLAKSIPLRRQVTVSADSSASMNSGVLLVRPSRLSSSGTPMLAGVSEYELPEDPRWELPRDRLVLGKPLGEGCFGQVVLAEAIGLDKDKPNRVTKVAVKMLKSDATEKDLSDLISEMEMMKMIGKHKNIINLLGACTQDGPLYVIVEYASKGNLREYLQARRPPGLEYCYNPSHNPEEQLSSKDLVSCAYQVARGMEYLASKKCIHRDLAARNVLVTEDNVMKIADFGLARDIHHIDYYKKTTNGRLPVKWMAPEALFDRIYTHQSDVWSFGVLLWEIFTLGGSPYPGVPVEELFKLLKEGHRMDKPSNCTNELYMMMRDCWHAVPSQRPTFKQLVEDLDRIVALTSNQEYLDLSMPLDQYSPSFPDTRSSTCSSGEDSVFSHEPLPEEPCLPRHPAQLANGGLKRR

Regarding `COCCSc1cc(NC(=O)N2CCCc3cc(CN(C)C(=O)[C@H]4CCCO4)c(C=O)nc32)ncc1C#N` [Example 16, (R)—N-(5-Cyano-4-((2-methoxyethyl)thio)pyridin-2-yl)-7-formyl-6-((N-methyltetrahydrofuran-2-carboxamido)methyl)-3,4-dihydro-1,8-naphthyridin-1(2H)-carboxamide], in data set [1], the Peak Time tmax turned out to be 2 h, the AUC(0-t) stood at 8760 ng·h/mL, the AUC(0-inf) worked out at 8370 ng·h/mL and the half-life is 1.4 h. Besides, in data set [1], the MRT was 2.5 h and the Cmax was determined as 3140 ng/mL. Also, the pIC50 on FGFR4 kinase was 8.70. This compound showed a pIC50 in the data set on HuH-7 cells of 7.97. In addition, on FGFR1 kinase, the pIC50 was less than 5.00. Besides, in the data set on Hep 3B cells, the pIC50 is 8.41. The compound further had a pIC50 in the data set on SK-HEP-1 cells of less than 5.00.
For `COC[C@@H](C)Oc1cc(NC(=O)N2CCCc3cc(CN4CC[C@H](OC)C4=O)c(C=O)nc32)ncc1C#N` [Example 50, N-(5-Cyano-4-(((R)-1-methoxypropan-2-yl)oxy)pyridin-2-yl)-7-formyl-6-(((S)-3-methoxy-2-carbonylpyrrolidin-1-yl)methyl)-3,4-dihydro-1,8-naphthyridin-1(2H)-carboxamide], in data set [1], the Peak Time tmax was 2 h, the AUC(0-t) stood at 9220 ng·h/mL, the AUC(0-inf) was 9240 ng·h/mL and the half-life is 0.8 h. In addition, in data set [1], the MRT was 2.5 h and the Cmax came to 2350 ng/mL. Also, the pIC50 at FGFR4 kinase was 8.92. In the data set on HuH-7 cells, this compound gave a pIC50 of 8.03. In addition, the negative-log IC50 (pIC50) against FGFR1 kinase is less than 5.00. Besides, the negative logarithm of the IC50 (pIC50) in the data set on Hep 3B cells is 8.64. Besides, in the data set on SK-HEP-1 cells, the pIC50 was less than 5.00.
Take `CO[C@H]1CCN(Cc2cc3c(nc2C=O)N(C(=O)Nc2cc(NC4COC4)c(C#N)cn2)CCC3)C1=O` [Example 83, (S)—N-(5-Cyano-4-(oxetan-3-ylamino)pyridin-2-yl)-7-formyl-6-((3-methoxy-2-carbonylpyrrolidin-1-yl)methyl)-3,4-dihydro-1,8-naphthyridin-1(2H)-carboxamide]: in data set [1], the Peak Time tmax was 2 h, the AUC(0-t) was found to be 7520 ng·h/mL, the AUC(0-inf) is 7590 ng·h/mL and the half-life is 0.9 h. In addition, in data set [1], the MRT worked out at 3 h and the Cmax is 2330 ng/mL. The same compound showed a negative-log IC50 (pIC50) against FGFR4 kinase of 8.88. The compound also had a pIC50 in the data set on HuH-7 cells of 8.26. At FGFR1 kinase, the negative-log IC50 (pIC50) was less than 5.00. The compound also had a pIC50 in the data set with Hep 3B cells of 8.33. In the data set on SK-HEP-1 cells, the negative logarithm of the IC50 (pIC50) was less than 5.00.
Consider `CO[C@H]1CCN(Cc2cc3c(nc2C=O)N(C(=O)Nc2cc(N[C@@H]4COC[C@H]4OC)c(C#N)cn2)CCC3)C1=O` [Example 86], for which, in data set [1], the Peak Time tmax was found to be 2 h, the AUC(0-t) is 6830 ng·h/mL, the AUC(0-inf) is 6900 ng·h/mL and the half-life was 1 h. Moreover, in data set [1], the MRT turned out to be 2.7 h and the Cmax was determined as 2760 ng/mL. Also, the pIC50 against FGFR4 kinase was 8.87. For the same compound, in the data set with HuH-7 cells, the pIC50 was 7.88. The compound also gave a pIC50 against FGFR1 kinase of less than 5.00. In the data set with Hep 3B cells, this compound had a negative-log IC50 (pIC50) of 8.52. In the data set with SK-HEP-1 cells, this compound gave a pIC50 of less than 5.00.

These data come from patent US11608332B2, “FGFR4 inhibitor and preparation method and use thereof” (Jiangsu Hansoh Pharmaceutical Group Co., Ltd., priority 2016, dated 2023).
